{
  "source": "patent US5814655A",
  "about": "“Non-steroidal ophthalmic mixtures” (InSite Vision Incorporated, priority 1996, dated 1998)",
  "test": "Percent of drug in suspension as a function of concentration in the formulation and pH",
  "format": "physicochemical",
  "key": {"[1]": {"details": "pH 4.0, concentration in the formulation 1.0"}, "[2]": {"details": "pH 4.0, concentration in the formulation 5.0"}, "[3]": {"details": "pH 4.0, concentration in the formulation .001"}, "[4]": {"details": "pH 4.0, concentration in the formulation .01"}, "[5]": {"details": "pH 4.0, concentration in the formulation .1"}, "[6]": {"details": "pH 5.0, concentration in the formulation 1.0"}, "[7]": {"details": "pH 5.0, concentration in the formulation 5.0"}, "[8]": {"details": "pH 5.0, concentration in the formulation .001"}, "[9]": {"details": "pH 5.0, concentration in the formulation .01"}, "[10]": {"details": "pH 5.0, concentration in the formulation .1"}, "[11]": {"details": "pH 6.0, concentration in the formulation 1.0"}, "[12]": {"details": "pH 6.0, concentration in the formulation 5.0"}, "[13]": {"details": "pH 6.0, concentration in the formulation .001"}, "[14]": {"details": "pH 6.0, concentration in the formulation .01"}, "[15]": {"details": "pH 6.0, concentration in the formulation .1"}, "[16]": {"details": "pH 7.0, concentration in the formulation 1.0"}, "[17]": {"details": "pH 7.0, concentration in the formulation 5.0"}, "[18]": {"details": "pH 7.0, concentration in the formulation .001"}, "[19]": {"details": "pH 7.0, concentration in the formulation .01"}, "[20]": {"details": "pH 7.0, concentration in the formulation .1"}},
  "data": [
    {"smiles": "CC(C(=O)O)c1ccc(C(=O)c2cccs2)cc1", "note": "(stereo not shown) [Suprofen]", "values": [
      {"measurement": "Percent Suprofen in Suspension", "setting": "[1]", "result": 98, "unit": "%"},
      {"measurement": "Percent Suprofen in Suspension", "setting": "[2]", "result": 99, "unit": "%"},
      {"measurement": "Percent Suprofen in Suspension", "setting": "[3]", "result": 0, "unit": "%"},
      {"measurement": "Percent Suprofen in Suspension", "setting": "[4]", "result": 0, "unit": "%"},
      {"measurement": "Percent Suprofen in Suspension", "setting": "[5]", "result": 77, "unit": "%"},
      {"measurement": "Percent Suprofen in Suspension", "setting": "[6]", "result": 95, "unit": "%"},
      {"measurement": "Percent Suprofen in Suspension", "setting": "[7]", "result": 99, "unit": "%"},
      {"measurement": "Percent Suprofen in Suspension", "setting": "[8]", "result": 0, "unit": "%"},
      {"measurement": "Percent Suprofen in Suspension", "setting": "[9]", "result": 0, "unit": "%"},
      {"measurement": "Percent Suprofen in Suspension", "setting": "[10]", "result": 45, "unit": "%"},
      {"measurement": "Percent Suprofen in Suspension", "setting": "[11]", "result": 54, "unit": "%"},
      {"measurement": "Percent Suprofen in Suspension", "setting": "[12]", "result": 95, "unit": "%"},
      {"measurement": "Percent Suprofen in Suspension", "setting": "[13]", "result": 0, "unit": "%"},
      {"measurement": "Percent Suprofen in Suspension", "setting": "[14]", "result": 0, "unit": "%"},
      {"measurement": "Percent Suprofen in Suspension", "setting": "[15]", "result": 0, "unit": "%"},
      {"measurement": "Percent Suprofen in Suspension", "setting": "[16]", "result": 0, "unit": "%"},
      {"measurement": "Percent Suprofen in Suspension", "setting": "[17]", "result": 68, "unit": "%"},
      {"measurement": "Percent Suprofen in Suspension", "setting": "[18]", "result": 0, "unit": "%"},
      {"measurement": "Percent Suprofen in Suspension", "setting": "[19]", "result": 0, "unit": "%"},
      {"measurement": "Percent Suprofen in Suspension", "setting": "[20]", "result": 0, "unit": "%"}
    ]},
    {"smiles": "O=C(O)Cc1ccccc1Nc1c(Cl)cccc1Cl", "note": "[Diclofenac Sodium, sodium ortho-(2,6-dichlorophenyl)aminophenylacetate acid]", "values": [
      {"measurement": "diclofenac in suspension (in words)", "setting": "below a pH of about 6.8, formulation containing 1% diclofenac sodium", "result": "virtually all"},
      {"measurement": "Percent Diclofenac Sodium in Suspension", "setting": "pH 3.7, concentration in the formulation 1.0", "result": 100, "unit": "%"},
      {"measurement": "Percent Diclofenac Sodium in Suspension", "setting": "pH 3.7, concentration in the formulation .001", "result": 100, "unit": "%"},
      {"measurement": "Percent Diclofenac Sodium in Suspension", "setting": "pH 3.7, concentration in the formulation .01", "result": 100, "unit": "%"},
      {"measurement": "Percent Diclofenac Sodium in Suspension", "setting": "pH 3.7, concentration in the formulation .1", "result": 100, "unit": "%"},
      {"measurement": "Percent Diclofenac Sodium in Suspension", "setting": "[1]", "result": 99, "unit": "%"},
      {"measurement": "Percent Diclofenac Sodium in Suspension", "setting": "[3]", "result": 99, "unit": "%"},
      {"measurement": "Percent Diclofenac Sodium in Suspension", "setting": "[4]", "result": 99, "unit": "%"},
      {"measurement": "Percent Diclofenac Sodium in Suspension", "setting": "[5]", "result": 99, "unit": "%"},
      {"measurement": "Percent Diclofenac Sodium in Suspension", "setting": "pH 4.6, concentration in the formulation 1.0", "result": 99, "unit": "%"},
      {"measurement": "Percent Diclofenac Sodium in Suspension", "setting": "pH 4.6, concentration in the formulation .001", "result": 90, "unit": "%"},
      {"measurement": "Percent Diclofenac Sodium in Suspension", "setting": "pH 4.6, concentration in the formulation .01", "result": 99, "unit": "%"},
      {"measurement": "Percent Diclofenac Sodium in Suspension", "setting": "pH 4.6, concentration in the formulation .1", "result": 99, "unit": "%"},
      {"measurement": "Percent Diclofenac Sodium in Suspension", "setting": "pH 5.2, concentration in the formulation 1.0", "result": 99, "unit": "%"},
      {"measurement": "Percent Diclofenac Sodium in Suspension", "setting": "pH 5.2, concentration in the formulation .001", "result": 20, "unit": "%"},
      {"measurement": "Percent Diclofenac Sodium in Suspension", "setting": "pH 5.2, concentration in the formulation .01", "result": 92, "unit": "%"},
      {"measurement": "Percent Diclofenac Sodium in Suspension", "setting": "pH 5.2, concentration in the formulation .1", "result": 99, "unit": "%"},
      {"measurement": "Percent Diclofenac Sodium in Suspension", "setting": "pH 5.9, concentration in the formulation 1.0", "result": 99, "unit": "%"},
      {"measurement": "Percent Diclofenac Sodium in Suspension", "setting": "pH 5.9, concentration in the formulation .001", "result": 0, "unit": "%"},
      {"measurement": "Percent Diclofenac Sodium in Suspension", "setting": "pH 5.9, concentration in the formulation .01", "result": 50, "unit": "%"},
      {"measurement": "Percent Diclofenac Sodium in Suspension", "setting": "pH 5.9, concentration in the formulation .1", "result": 95, "unit": "%"},
      {"measurement": "Percent Diclofenac Sodium in Suspension", "setting": "pH 6.3, concentration in the formulation 1.0", "result": 98, "unit": "%"},
      {"measurement": "Percent Diclofenac Sodium in Suspension", "setting": "pH 6.3, concentration in the formulation .001", "result": 0, "unit": "%"},
      {"measurement": "Percent Diclofenac Sodium in Suspension", "setting": "pH 6.3, concentration in the formulation .01", "result": 0, "unit": "%"},
      {"measurement": "Percent Diclofenac Sodium in Suspension", "setting": "pH 6.3, concentration in the formulation .1", "result": 76, "unit": "%"},
      {"measurement": "Percent Diclofenac Sodium in Suspension", "setting": "pH 6.5, concentration in the formulation 1.0", "result": 93, "unit": "%"},
      {"measurement": "Percent Diclofenac Sodium in Suspension", "setting": "pH 6.5, concentration in the formulation .001", "result": 0, "unit": "%"},
      {"measurement": "Percent Diclofenac Sodium in Suspension", "setting": "pH 6.5, concentration in the formulation .01", "result": 0, "unit": "%"},
      {"measurement": "Percent Diclofenac Sodium in Suspension", "setting": "pH 6.5, concentration in the formulation .1", "result": 35, "unit": "%"},
      {"measurement": "Percent Diclofenac Sodium in Suspension", "setting": "pH 7.3, concentration in the formulation 1.0", "result": 64, "unit": "%"},
      {"measurement": "Percent Diclofenac Sodium in Suspension", "setting": "pH 7.3, concentration in the formulation .001", "result": 0, "unit": "%"},
      {"measurement": "Percent Diclofenac Sodium in Suspension", "setting": "pH 7.3, concentration in the formulation .01", "result": 0, "unit": "%"},
      {"measurement": "Percent Diclofenac Sodium in Suspension", "setting": "pH 7.3, concentration in the formulation .1", "result": 0, "unit": "%"}
    ]},
    {"smiles": "CC(C(=O)O)c1ccc(-c2ccccc2)c(F)c1", "note": "(stereo not shown) [Flurbiprofen]", "values": [
      {"measurement": "Percent Flurbiprofen in Suspension", "setting": "[1]", "result": 99, "unit": "%"},
      {"measurement": "Percent Flurbiprofen in Suspension", "setting": "[2]", "result": 99, "unit": "%"},
      {"measurement": "Percent Flurbiprofen in Suspension", "setting": "[3]", "result": 20, "unit": "%"},
      {"measurement": "Percent Flurbiprofen in Suspension", "setting": "[4]", "result": 92, "unit": "%"},
      {"measurement": "Percent Flurbiprofen in Suspension", "setting": "[5]", "result": 99, "unit": "%"},
      {"measurement": "Percent Flurbiprofen in Suspension", "setting": "[6]", "result": 99, "unit": "%"},
      {"measurement": "Percent Flurbiprofen in Suspension", "setting": "[7]", "result": 99, "unit": "%"},
      {"measurement": "Percent Flurbiprofen in Suspension", "setting": "[8]", "result": 0, "unit": "%"},
      {"measurement": "Percent Flurbiprofen in Suspension", "setting": "[9]", "result": 33, "unit": "%"},
      {"measurement": "Percent Flurbiprofen in Suspension", "setting": "[10]", "result": 93, "unit": "%"},
      {"measurement": "Percent Flurbiprofen in Suspension", "setting": "[11]", "result": 80, "unit": "%"},
      {"measurement": "Percent Flurbiprofen in Suspension", "setting": "[12]", "result": 98, "unit": "%"},
      {"measurement": "Percent Flurbiprofen in Suspension", "setting": "[13]", "result": 0, "unit": "%"},
      {"measurement": "Percent Flurbiprofen in Suspension", "setting": "[14]", "result": 0, "unit": "%"},
      {"measurement": "Percent Flurbiprofen in Suspension", "setting": "[15]", "result": 0, "unit": "%"},
      {"measurement": "Percent Flurbiprofen in Suspension", "setting": "[16]", "result": 24, "unit": "%"},
      {"measurement": "Percent Flurbiprofen in Suspension", "setting": "[17]", "result": 92, "unit": "%"},
      {"measurement": "Percent Flurbiprofen in Suspension", "setting": "[18]", "result": 0, "unit": "%"},
      {"measurement": "Percent Flurbiprofen in Suspension", "setting": "[19]", "result": 0, "unit": "%"},
      {"measurement": "Percent Flurbiprofen in Suspension", "setting": "[20]", "result": 0, "unit": "%"}
    ]}
  ]
}
